Measured values from ChEMBL document CHEMBL3407359, “(3Z)-3-(2-[4-(aryl)-1,3-thiazol-2-yl]hydrazin-1-ylidene)-2,3-dihydro-1H-indol-2-one derivatives as dual inhibitors of HIV-1 reverse transcriptase” (Eur J Med Chem, 2015).

What was measured:
[1] = molecular target: Human immunodeficiency virus type 1 reverse transcriptase (Human immunodeficiency virus 1) (UniProt Q72547); assay: Specificity index, ratio of IC50 for HIV1 reverse transcriptase-associated DNA polymerase-independent RNase H activity to IC50 for HIV1 reverse transcriptase-associated RNA-dependent DNA polymerase activity
[2] = molecular target: T1, Human immunodeficiency virus type 1 reverse transcriptase (Human immunodeficiency virus 1, UniProt Q72547); assay: Inhibition of HIV1 reverse transcriptase-associated DNA polymerase-independent RNase H activity after 1 hr
[3] = molecular target: T1, Human immunodeficiency virus type 1 reverse transcriptase; assay: Inhibition of HIV1 reverse transcriptase-associated RNA-dependent DNA polymerase activity after 30 mins
[4] = Metal chelating activity of the compound assessed as magnesium ion complex formation by UV-vis spectrometric analysis; assay type: physicochemical
[5] = molecular target: T2, Human immunodeficiency virus type 1 reverse transcriptase (Human immunodeficiency virus 1, UniProt Q72547, Y181C)
Description: Inhibition of HIV1 reverse transcriptase Tyr181Cys mutant-associated RNA-dependent DNA polymerase activity after 30 mins

[6] = molecular target: T2, Human immunodeficiency virus type 1 reverse transcriptase; remark: listed apart in the source
Description: Inhibition of HIV1 reverse transcriptase Tyr181Cys mutant-associated DNA polymerase-independent RNase H activity after 1 hr

[7] = molecular target: T3, Human immunodeficiency virus type 1 reverse transcriptase (Human immunodeficiency virus 1, UniProt Q72547, K103N)
Description: Inhibition of HIV1 reverse transcriptase Lys103Asn mutant-associated RNA-dependent DNA polymerase activity after 30 mins

[8] = molecular target: T3, Human immunodeficiency virus type 1 reverse transcriptase; remark: listed apart in the source
Description: Inhibition of HIV1 reverse transcriptase Lys103Asn mutant-associated DNA polymerase-independent RNase H activity after 1 hr

SMILES | Ratio IC50 [1] | IC50 [2] | IC50 [3] | Activity [4] | IC50 [5] | IC50 [6] | IC50 [7] | IC50 [8]
COc1ccc(-c2csc(N/N=C3\C(=O)Nc4ccccc43)n2)cc1 | 0.18 | 4.7 µM | 26 µM |  |  |  |  | 
O=C1Nc2ccccc2/C1=N/Nc1nc(-c2ccc(-c3ccccc3)cc2)cs1 | 0.11 | 2.5 µM | 22 µM | Not Active | 15.4 µM | 2.7 µM | 18.8 µM | 3.42 µM
O=C1Nc2ccccc2/C1=N/Nc1nc(-c2ccc(Cl)cc2Cl)cs1 | 0.2 | 3.9 µM | 19.5 µM |  |  |  |  | 
O=C1Nc2ccccc2/C1=N/Nc1nc(-c2ccc(F)cc2F)cs1 | 0.14 | 2.6 µM | 18.5 µM |  |  |  |  | 
O=C1Nc2ccccc2/C1=N/Nc1nc(-c2ccc(O)c(O)c2)cs1 | 3.5 | 3.2 µM | 0.9 µM | Not Active |  |  |  | 
O=C1Nc2ccccc2/C1=N/Nc1nc(-c2ccc([N+](=O)[O-])cc2)cs1 | 0.08 | 2.9 µM | 34 µM |  |  |  |  | 

The next lines start with results.

Ratio IC50 [1] | IC50 [2] | IC50 [3] | SMILES | Activity [4] | IC50 [5] | IC50 [6] | IC50 [7] | IC50 [8]
0.18 | 14.9 µM | 81 µM | O=C1Nc2ccccc2/C1=N/Nc1nc(-c2ccc(Br)cc2)cs1 |  |  |  |  | 
0.21 | 2.8 µM | 13 µM | O=C1Nc2ccccc2/C1=N/Nc1nc(-c2cccc([N+](=O)[O-])c2)cs1 |  |  |  |  | 
0.2 | 9 µM | 45 µM | Cc1ccc(-c2csc(N/N=C3\C(=O)Nc4ccccc43)n2)cc1 |  |  |  |  | 
0.26 | 6.4 µM | 23.9 µM | O=C1Nc2ccccc2/C1=N/Nc1nc(-c2ccc(F)cc2)cs1 |  |  |  |  | 
1.3 | 100 µM | 71.6 µM | O=C1Nc2ccccc2/C1=N/Nc1nc(-c2ccccc2)cs1 |  |  |  |  | 
0.53 | 10.6 µM | 20 µM | O=C1Nc2ccccc2/C1=N/Nc1nc(-c2ccc(Cl)cc2)cs1 |  |  |  |  | 
